According to ChEMBL document CHEMBL2346566, “Small molecule inhibitors of PCNA/PIP-box interaction suppress translesion DNA synthesis” (Bioorg Med Chem, 2013):
Calls of active or inactive are those of the source. No cut-off for these calls is given here.

Legend:
Format in all cases: functional, cell-based
HeLa = assay: Antiproliferative activity against human HeLa cells assessed as inhibition of at 10 uM after 18 hrs by assay
U2OS [1] = assay: Cytotoxicity against human U2OS cells at 15 uM after 4 days by Alamar blue assay
U2OS [2] = assay: Potentiation of cisplatin-induced cytotoxicity in human U2OS cells at 15 uM after 4 days by Alamar blue assay

Question: Which Activity (HeLa) does the source give for `O=C(Cc1cc(I)c(Oc2ccc(O)c(I)c2)c(I)c1)NS(=O)(=O)c1ccccc1` here?
Answer: Active

Question: With `CC(=O)N[C@H](CO)Cc1cc(I)c(Oc2ccc(O)cc2)c(I)c1` as the molecule, how does the Activity (HeLa) read?
Answer: Active

Question: With `CC(C)NC(=O)NC[C@@H](N)Cc1cc(I)c(Oc2ccc(O)cc2)c(I)c1` as the molecule, how does the Activity (U2OS [1]) read?
Answer: inactive

Question: And the Activity (HeLa)?
Answer: Active

Question: What about the Activity (U2OS [2]) of the same molecule?
Answer: Active

Question: Which Activity (HeLa) does the source give for `CS(=O)(=O)NC(=O)Cc1cc(I)c(Oc2ccc(O)c(I)c2)c(I)c1` here?
Answer: Active

Question: For `CC(=O)NC[C@@H](N)Cc1cc(I)c(Oc2ccc(O)cc2)c(I)c1`, which Activity (U2OS [1]) is on record?
Answer: inactive

Question: What about the Activity (HeLa) of the same molecule?
Answer: Active

Question: What about the Activity (U2OS [2]) of the same molecule?
Answer: Active

Question: `N[C@H](CNC(=O)N1CCOCC1)Cc1cc(I)c(Oc2ccc(O)cc2)c(I)c1` was tested. Which Activity (HeLa) did it give?
Answer: Active

Question: `COC(=O)N[C@H](CO)Cc1cc(I)c(Oc2ccc(O)cc2)c(I)c1` was tested. Which Activity (HeLa) did it give?
Answer: Active

Question: For `O=C(CCc1cc(I)c(Oc2ccc(O)cc2)c(I)c1)N1CCOCC1`, which Activity (HeLa) is on record?
Answer: Active

Question: Which Activity (HeLa) does the source give for `N[C@H](CNC(=O)CCN1CCOCC1)Cc1cc(I)c(Oc2ccc(O)cc2)c(I)c1` here?
Answer: Active

Question: For `CNC(=O)Cc1cc(I)c(Oc2ccc(O)c(I)c2)c(I)c1`, which Activity (U2OS [1]) is on record?
Answer: inactive

Question: What about the Activity (HeLa) of the same molecule?
Answer: Active

Question: What about the Activity (U2OS [2]) of the same molecule?
Answer: Active

Question: `N[C@H](CO)Cc1cc(I)c(Oc2ccc(O)cc2)c(I)c1` was tested. Which Activity (U2OS [1]) did it give?
Answer: inactive

Question: And the Activity (HeLa)?
Answer: Active

Question: What about the Activity (U2OS [2]) of the same molecule?
Answer: Active

Question: With `CCOCCNC(=O)CCc1cc(I)c(Oc2ccc(O)cc2)c(I)c1` as the molecule, how does the Activity (HeLa) read?
Answer: Active

Question: Which Activity (HeLa) does the source give for `CNC(=O)CCc1cc(I)c(Oc2ccc(O)cc2)c(I)c1` here?
Answer: Active

Question: For `O=C(Cc1cc(I)c(Oc2ccc(O)c(I)c2)c(I)c1)N1CCOCC1`, which Activity (HeLa) is on record?
Answer: Active

Question: How did the Activity (HeLa) turn out when `CN(C)C(=O)Cc1cc(I)c(Oc2ccc(O)c(I)c2)c(I)c1` was run?
Answer: Active

Question: `O=C(CCc1cc(I)c(Oc2ccc(O)cc2)c(I)c1)NCC1CCCO1` (configuration not stated) was tested. Which Activity (HeLa) did it give?
Answer: Active

Question: `O=C(CCc1cc(I)c(Oc2ccc(O)cc2)c(I)c1)NCCO` was tested. Which Activity (HeLa) did it give?
Answer: Active

Question: With `CS(=O)(=O)NC[C@@H](N)Cc1cc(I)c(Oc2ccc(O)cc2)c(I)c1` as the molecule, how does the Activity (HeLa) read?
Answer: Active

Question: For `CC(C)NC(=O)N[C@H](CO)Cc1cc(I)c(Oc2ccc(O)cc2)c(I)c1`, which Activity (HeLa) is on record?
Answer: Active
